System: NQO1
Experiment: NQO1/NADH/NAC cell-free reaction in 96-well plate: oxygen consumption rate (Seahorse XF Analyzer) and hydrogen peroxide produced (absorption at 240 nm)
Type: biochemical
Description: Referring now to FIG. 1C-1D, data graphs are provided illustrating the results of one sample experiment for hydrogen peroxide produced using the one or more embodiments of the present disclosure described herein. In particular, FIG. 1C illustrates the generation of superoxide radicals by using the Oxygen Consumption Rate (OCR) with respect to time as a proxy for one experiment. Here, the experiment comprised using a Seahorse Bioscience XF Analyzer® instrument to measure the OCR with respect to time. In addition, a 96-well plate was used wherein each well was filled with 140 microliters of 100 units of NQO1, NADH, 4 micromolar NAC (β-Lacaphone), 50 millimolar Tris-HCl at pH 7 wherein the solutions were kept at atmospheric temperature. […] Further, at the conclusion of this 7-hour period, approximately […] hydrogen peroxide was produced and measured. […] Specifically, referring to FIG. 1D, the hydrogen peroxide concentration was measured using a spectrophotometric absorption of 240 nm corresponding to hydrogen peroxide.

CC1(C)CCC2=C(O1)c1ccccc1C(=O)C2=O [β-lapachone]
resulting hydrogen peroxide concentration (7-hour run cycle, spectrophotometric absorption 240 nm): > 30%
Oxygen Consumption Rate (OCR) with respect to time, proxy for generation of superoxide radicals (100 units NQO1, NADH, 4 micromolar NAC, 50 millimolar Tris-HCl pH 7, atmospheric temperature, 7-hour period, measured every 2 minutes, versus DMSO vehicle control wells): dramatically increased and sustained OCR
hydrogen peroxide produced and measured (at conclusion of 7-hour period, 100 units NQO1, NADH, 4 micromolar NAC, 50 millimolar Tris-HCl pH 7, spectrophotometric absorption 240 nm): approximately 12 molar
